The test system of experiment [1] is Eimeria tenella. Briefly: In vivo anticoccidial efficacy in broilers after Eimeria tenella challenge inoculation. Particulars: in feed: salinomycin 60 ppm, diclazuril 1 ppm, ginkgo leaf powder 125 ppm; for Anticoccidial index (ACI): Equation 2, out of 200 points; for Lesion index: appendix lesion score x 10; for ADG after challenge inoculation / Survival rate (%): broilers; for ADG after challenge inoculation: before to 7th day after challenge; for Survival rate (%): up to 8th day after challenge; for Oocyst index: from oocyst excretion % of infected negative control; for Daily weight gain compared to negative control group (RWG, %): relative to non-infected negative control; for Appendix lesion score: scale 0-4, 8th day after challenge. The method, then:
An in vivo anticoccidial efficacy evaluation test was performed in an animal experiment facility in Gyeongsangnam-do, South Korea. One-day-old female Ross broilers were individually weighed and randomly divided into groups to use in an experiment. Matters and conditions for experimental design were described in Table 2.
For the feed, Korea Feed A1-choi product was used, and each material diclazuril (Yuhan Corporation YUHAN DICLA product), salinomycin (Cheil Bio Cheilsalino-60 product), gallic acid (Sigma product), the ginkgo leaf product prepared in Example 1-2) was added to the feed, respectively, at a concentration described in Table 3 below to be self-mixed. Antibiotics and supplements were not used in general feed and mixed feed, and no anticoccidial agent other than each material was added. Broilers were fed ad libitum throughout the experiment period. After putting 30 1-day-age broilers in cages randomly placed for each of the control group or test group and breeding, general feed (A1-choi product) was fed for 7 days, and then the mixed feed prepared above was ingested by dividing by control group or test group.
The feed formulation administered to the control group (negative control group or positive control group) and test group and whether coccidiosis was induced by Eimeria tenella were described in Table 3 below.
14-day-old broilers were orally inoculated (challenge inoculation) with 10,000 oocysts (over 90% sporulated Eimeria tenella oocysts) per individual to induce coccidiosis.
The anticoccidial efficacy by test group designed in Example 1-3 above was shown as an anticoccidial index (ACI), and the anticoccidial index was calculated by Equation 2 below. The ACI score is out of 200 points, and the higher the ACI score, the more excellent the anticoccidial ability, and when it is 120 points or more to less than 140 points, it is determined that it is effective as an anticoccidial material, and when it is 140 points or more to less than 160 points, it is determined that it is excellent as an anticoccidial material, and when it is 160 points or more, it is determined that the anticoccidial effect is very excellent (Luis Miguel De Pablos et al., Anticoccidial activity of maslinic acid against infection with Eimeria tenella in chickens, Parasitol Res, 2010). Anticoccidial index(ACI)=(survival rate after challenge inoculation (%))+(daily weight gain compared to negative control group(RWG,%))−(lesion score×10)−(fecal oocyst excretion amount index)(Equation 2) • 1) Survival rate: the number of dead individuals was recorded daily, and post mortem autopsy was performed to determine a cause of mortality, and the number of individuals who died due to causes other than coccidiosis was excluded. The survival rate (%) up to the 8th day after challenge inoculation was used for anticoccidial index calculation.
• 3) Lesion scoring: On the 8th day after challenge inoculation, an autopsy was conducted for 4 broilers per cage, and the intestines were incised and opened. Scoring was performed for each coccidial lesion in the appendix region of the broilers. The lesion scoring method was performed by referring to Johnson J K & Reid W M (1970) document (Joyce Johnson, W. Malcolm Reid, Anticoccidial drugs: Lesion scoring techniques in battery and floor-pen experiments with chickens, Experimental parasitology, 1970). The lesion score is on a scale of 0-4, and 0 point corresponds to normal appendix, and 1 point is a mild infection symptom, and 2 points is a moderate infection symptom, and 3 points is a severe infection symptom and 4 points is a case of showing a very severe infection symptom or causing death. A lesion index was calculated by multiplying the measured appendix lesion score by 10, and this was used for anticoccidial index calculation.
• 4) Fecal oocyst excretion amount: the entire feces on the 6˜8th day of challenge inoculation were collected by cage, mixed evenly, and then randomly sampled 3 times in total by 1 g each. […]

The subject of experiment [2] is Eimeria tenella. Description: Direct killing of protozoa (sporozoites), Eimeria tenella. It counts as cell-based. Particulars: tested 1 to 500 ppm, vs PBS control. The method, then: (§1) In the present example, protozoan (sporozoite) direct killing ability evaluation was conducted against 3 representative Eimeria kinds known to be infected in most farms (E. tenella, E. acervulina, E. maxima).
(§2) A certain amount of oocysts of each protozoan was put in a tube containing glass beads and pulverized, and then to remove the crushed oocyst cell wall and other debris, internal sporocysts were purified using the percoll density gradient, and washed with PBS solution. A reagent comprising sodium taurocholic acid (Sigma aldrich, USA) and trypsin (Gibco, USA), respectively, was treated to sporocysts of Eimeria tenella, Eimeria acervulina and Eimeria maxima for excystation and they were incubated, and then they were washed with PBS solution once and protozoa were obtained.

In experiment [3] the test system is Eimeria acervulina. Description: Direct killing of protozoa (sporozoites), Eimeria acervulina. It counts as cell-based. The note with it: tested 1 to 500 ppm, vs PBS control. The protocol: as §1, §2
For a further experiment, the system named is Eimeria maxima. Briefly: Direct killing of protozoa (sporozoites), Eimeria maxima. Format: cell-based. The note with it: tested 1 to 500 ppm, vs PBS control. The protocol: as §1, §2
Experiment [4] deals with Eimeria tenella. Briefly: Cell invasion inhibition of Eimeria tenella protozoa in MDBK cells (ITS-1 PCR). It counts as cell-based. Particulars: read-out: Cell invasion inhibitory effect of protozoan (%). The method, then: 100,000 MDBK cells (purchased from ATCC) were aliquoted in a 24-well plate, and then incubated at a temperature of 37° C. for 12 hours. […] After removing the cells and protozoa inside the cells through pipetting, DNA was extracted from the cells, and PCR was performed using E. tenella ITS-1 (Internal transcribed spacer-1) gene-specific primers. The sequences of the used primers were described in Table 10 below. Ct values before/after washing for each material were compared and corrected with the ΔCt value of the negative control group to calculate the cell invasion inhibition rate (%) of the protozoa through treatment of each material, and the result was shown in FIG. 2 and Table 11 below.

Experiment [5] deals with Eimeria tenella. Description: Intracellular propagation inhibition of Eimeria tenella protozoa in MDBK cells (ITS-1 PCR). The note with it: read-out: Intracellular protozoal propagation inhibitory effect (%). Format: cell-based. The method, then: 100,000 MDBK cells (purchased from ATCC) were aliquoted in a 24-well plate, and then incubated at a temperature of 37° C. for 12 hours. The protozoan of Eimeria tenella was obtained similar to the method of Example 2 above. […] A negative control group is a MDBK cell infected by protozoa, and a positive control group means a group in which salinomycin and diclazuril solution was incubated with the Eimeria tenella protozoan. After removing the cells and protozoa inside the cells through pipetting, DNA was extracted from the cells, and PCR was performed using E. tenella ITS-1 (Internal transcribed spacer-1) gene-specific primers. The sequences of the used primers were described in Table 10 above.
Ct values before/after washing for each material were compared to calculate the cell invasion inhibition rate (%) of the protozoa and the intracellular protozoan propagation inhibition rate (%) through treatment of the material, and the result was shown in FIG. 2 and Table 11 below.

The test system of experiment [6] is Eimeria acervulina. Description: Eimeria acervulina sporozoite death rate by component of ginkgo leaf powder. Format: cell-based. The protocol:
as §2

In the case of `CC[C@@H](C(=O)[C@@H](C)[C@@H](O)[C@H](C)[C@@H]1O[C@@H]([C@@H](CC)C(=O)O)CC[C@@H]1C)[C@H]1O[C@]2(C=C[C@@H](O)[C@]3(CC[C@@](C)([C@H]4CC[C@](O)(CC)[C@H](C)O4)O3)O2)[C@H](C)C[C@@H]1C` [Salinomycin, salinomycin], in the experiment with Eimeria tenella [1], the “Anticoccidial index (ACI)” value turned out to be 141, the Lesion index came out at 27, the “ADG after challenge inoculation” value turned out to be 62 g/day and the “Survival rate (%)” value was found to be 93%. Besides, in the experiment on Eimeria tenella [1], the Oocyst index stood at 20; the “Daily weight gain compared to negative control group (RWG, %)” value is 94%; the Appendix lesion score turned out to be 2.7. In addition, the “Minimum concentration for killing 50% protozoa (sporozoites) (ppm)” value in the experiment with Eimeria tenella [2] turned out to be 125 ppm. Also, the “Minimum concentration for killing 50% protozoa (sporozoites) (ppm)” value in the experiment on Eimeria acervulina [3] was found to be 100 ppm. The “Minimum concentration for killing 50% protozoa (sporozoites) (ppm)” value in the experiment on Eimeria maxima came to 250 ppm. In addition, in the experiment on Eimeria tenella [4] (MDBK, 24 h), the inhibition at 5 ppm worked out at 50.1% and the inhibition at 10 ppm was determined as 56.4%. Moreover, in the experiment on Eimeria tenella [5] (MDBK), the inhibition at 5 ppm came out at 32.2% and the inhibition at 10 ppm came out at 34.8%.

Turning to `O=C(O)c1cc(O)c(O)c(O)c1` [Gallic acid, gallic acid], the “Minimum concentration for killing 50% protozoa (sporozoites) (ppm)” value with Eimeria tenella [2], with Eimeria tenella [2] (listed as gallic acid), in the experiment with Eimeria acervulina [3] and in the experiment with Eimeria maxima was above 500 ppm each time. Also, the inhibition at 5 ppm with Eimeria tenella [4] (5 ppm, MDBK cells, 24 hours) was 76%; with Eimeria tenella [5] (5 ppm, MDBK cells) it was 0%. Also, the inhibition at 10 ppm in the experiment on Eimeria tenella [4] (10 ppm, MDBK cells, 24 hours) turned out to be 90.1%; with Eimeria tenella [5] (10 ppm, MDBK cells), 0%.

Consider `O=c1c(O)c(-c2ccc(O)cc2)oc2cc(O)cc(O)c12` [Kaempferol], for which the “Eimeria acervulina sporozoite death rate (%)” value with Eimeria acervulina [6] (8 ppm) is reported as 0%; in the experiment on Eimeria acervulina [6] (16 ppm) it was 0%; with Eimeria acervulina [6] (31 ppm), 0%; in the experiment on Eimeria acervulina [6] (63 ppm), 0%; in the experiment on Eimeria acervulina [6] (125 ppm), 1%; with Eimeria acervulina [6] (250 ppm), 27%. Moreover, the “Eimeria acervulina sporozoite death rate (%)” value in the experiment with Eimeria acervulina [6] (500 ppm) is 54%.

Take `O=c1c(O)c(-c2ccc(O)c(O)c2)oc2cc(O)cc(O)c12` [Quercetin]: the “Eimeria acervulina sporozoite death rate (%)” value in the experiment with Eimeria acervulina [6] (8 ppm) is 0%; in the experiment on Eimeria acervulina [6] (16 ppm) it was 0%; in the experiment on Eimeria acervulina [6] (31 ppm), 0%; with Eimeria acervulina [6] (63 ppm) it was 8%; in the experiment on Eimeria acervulina [6] (125 ppm) it was 34%; in the experiment with Eimeria acervulina [6] (250 ppm) it was 47%. Moreover, the “Eimeria acervulina sporozoite death rate (%)” value in the experiment on Eimeria acervulina [6] (500 ppm) was determined as 68%.

As for `N#CC(c1ccc(Cl)cc1)c1c(Cl)cc(-n2ncc(=O)[nH]c2=O)cc1Cl` (stereo not drawn) [Diclazuril, diclazuril], in the experiment with Eimeria tenella [1], the “Anticoccidial index (ACI)” value turned out to be 148, the Lesion index is 29, the “ADG after challenge inoculation” value was determined as 62 g/day and the “Survival rate (%)” value is recorded as 97%. Further, in the experiment on Eimeria tenella [1], the Oocyst index is listed as 10; the “Daily weight gain compared to negative control group (RWG, %)” value stood at 93%; the Appendix lesion score is reported as 2.88. In addition, the “Minimum concentration for killing 50% protozoa (sporozoites) (ppm)” value with Eimeria tenella [2] came out at 500 ppm. The “Minimum concentration for killing 50% protozoa (sporozoites) (ppm)” value with Eimeria acervulina [3] was above 500 ppm. Further, in the experiment on Eimeria maxima, the “Minimum concentration for killing 50% protozoa (sporozoites) (ppm)” value is reported as above 500 ppm. For the same compound, the inhibition at 0.5 ppm with Eimeria tenella [4] (0.5 ppm, MDBK cells, 24 hours) was determined as 0%. In the experiment with Eimeria tenella [4] (1 ppm, MDBK cells, 24 hours), the inhibition at 1 ppm worked out at 6.3%. The inhibition at 0.5 ppm in the experiment with Eimeria tenella [5] (0.5 ppm, MDBK cells) came out at 45.9%. In addition, in the experiment on Eimeria tenella [5] (1 ppm, MDBK cells), the inhibition at 1 ppm turned out to be 52.9%.

Regarding `CC(C)(C)C1(O)CC2OC(=O)CC23C(=O)OC2OC(=O)C(O)C231` (stereo not drawn) [Bilobalide], the “Eimeria acervulina sporozoite death rate (%)” value with Eimeria acervulina [6] (8 ppm) worked out at 0%; with Eimeria acervulina [6] (16 ppm), 0%; with Eimeria acervulina [6] (31 ppm), 0%; in the experiment with Eimeria acervulina [6] (63 ppm) it was 8%; in the experiment with Eimeria acervulina [6] (125 ppm), 14%; in the experiment on Eimeria acervulina [6] (250 ppm) it was 41%. In the experiment with Eimeria acervulina [6] (500 ppm), the “Eimeria acervulina sporozoite death rate (%)” value was 51%.

The record behind these values is patent publication US12622941B2, “Anticoccidial composition comprising ginkgo leaves and use thereof” (CJ CHEILJEDANG CORPORATION, priority 2020, dated 2026).
